Measured values taken from the NIST ThermoML archive (doi:10.1016/j.jct.2018.04.018).
Values joined by “and” are separate entries in the source; they are usually repeats but may differ in a detail not shown here. Equal entries are not always repeated.

Details: 101.33 kPa, Liquid; for mass density: Vibrating tube method; for speed of sound: Single path-length method

CCCCCCCC[n+]1ccn(C)c1.F[P-](F)(F)(F)(F)F [1-octyl-3-methylimidazolium hexafluorophosphate]
Details	viscosity
298.08 K, Cone and plate viscometry	705.1 mPa·s
298.15 K, Concentric cylinders viscometry	691.2 mPa·s
298.69 K, Cone and plate viscometry	682.3 mPa·s
298.82 K, Cone and plate viscometry	668.2 mPa·s
299.43 K, Cone and plate viscometry	647.5 mPa·s
299.55 K, Cone and plate viscometry	632.9 mPa·s
300.16 K, Cone and plate viscometry	614.6 mPa·s
300.28 K, Cone and plate viscometry	601.2 mPa·s
300.91 K, Cone and plate viscometry	584.1 mPa·s
301 K, Cone and plate viscometry	572.3 mPa·s
301.65 K, Cone and plate viscometry	555.5 mPa·s
301.73 K, Cone and plate viscometry	545 mPa·s
302.39 K, Cone and plate viscometry	528.9 mPa·s
302.46 K, Cone and plate viscometry	519.8 mPa·s
303.14 K, Cone and plate viscometry	502.9 mPa·s
303.15 K, Concentric cylinders viscometry	490 mPa·s
303.19 K, Cone and plate viscometry	494.3 mPa·s
303.88 K, Cone and plate viscometry	478.8 mPa·s
303.92 K, Cone and plate viscometry	470.6 mPa·s
304.62 K, Cone and plate viscometry	450.9 mPa·s
304.65 K, Cone and plate viscometry	449.1 mPa·s
305.37 K, Cone and plate viscometry	434.2 mPa·s
305.39 K, Cone and plate viscometry	429.1 mPa·s
306.11 K, Cone and plate viscometry	414.9 mPa·s
306.13 K, Cone and plate viscometry	409.9 mPa·s
306.85 K, Cone and plate viscometry	396 mPa·s
306.86 K, Cone and plate viscometry	390.9 mPa·s
307.59 K, Cone and plate viscometry	378 mPa·s
307.6 K, Cone and plate viscometry	372.5 mPa·s
308.34 K, Cone and plate viscometry	361 mPa·s
308.35 K, Cone and plate viscometry	356 mPa·s
309.09 K, Cone and plate viscometry	339.9 mPa·s and 344.9 mPa·s
309.82 K, Cone and plate viscometry	329.8 mPa·s
309.84 K, Cone and plate viscometry	325.7 mPa·s
310.57 K, Cone and plate viscometry	311.5 mPa·s and 315.9 mPa·s
311.31 K, Cone and plate viscometry	301.8 mPa·s
311.32 K, Cone and plate viscometry	297.7 mPa·s
312.05 K, Cone and plate viscometry	288.8 mPa·s
312.06 K, Cone and plate viscometry	284.9 mPa·s
312.8 K, Cone and plate viscometry	273.3 mPa·s and 275.7 mPa·s
313.15 K, Concentric cylinders viscometry	266.1 mPa·s
313.54 K, Cone and plate viscometry	264.8 mPa·s
313.55 K, Cone and plate viscometry	262 mPa·s
314.28 K, Cone and plate viscometry	254 mPa·s
314.29 K, Cone and plate viscometry	251.2 mPa·s
315.03 K, Cone and plate viscometry	240.6 mPa·s and 243.2 mPa·s
315.77 K, Cone and plate viscometry	230.6 mPa·s and 233 mPa·s
316.51 K, Cone and plate viscometry	221.6 mPa·s and 223.5 mPa·s
317.25 K, Cone and plate viscometry	213.6 mPa·s
317.26 K, Cone and plate viscometry	214.9 mPa·s
317.99 K, Cone and plate viscometry	206.5 mPa·s
318 K, Cone and plate viscometry	204 mPa·s
318.74 K, Cone and plate viscometry	196.1 mPa·s and 198.4 mPa·s
319.48 K, Cone and plate viscometry	188.3 mPa·s and 190.7 mPa·s
320.22 K, Cone and plate viscometry	181 mPa·s and 183.1 mPa·s
320.96 K, Cone and plate viscometry	174.4 mPa·s
320.97 K, Cone and plate viscometry	176 mPa·s
321.71 K, Cone and plate viscometry	168.1 mPa·s
321.72 K, Cone and plate viscometry	169.5 mPa·s
322.44 K, Cone and plate viscometry	163.6 mPa·s
322.46 K, Cone and plate viscometry	161.6 mPa·s
323.19 K, Cone and plate viscometry	155.4 mPa·s and 157.1 mPa·s
323.93 K, Cone and plate viscometry	149.8 mPa·s
323.94 K, Cone and plate viscometry	151.1 mPa·s
324.68 K, Cone and plate viscometry	144.3 mPa·s
324.69 K, Cone and plate viscometry	145.6 mPa·s
325.43 K, Cone and plate viscometry	139.3 mPa·s
325.44 K, Cone and plate viscometry	140.5 mPa·s
326.17 K, Cone and plate viscometry	135.3 mPa·s
326.18 K, Cone and plate viscometry	135.7 mPa·s
326.91 K, Cone and plate viscometry	129.5 mPa·s
326.92 K, Cone and plate viscometry	130.8 mPa·s
327.65 K, Cone and plate viscometry	124.9 mPa·s
327.67 K, Cone and plate viscometry	126 mPa·s
328.39 K, Cone and plate viscometry	120.8 mPa·s
328.46 K, Cone and plate viscometry	121.6 mPa·s
329.14 K, Cone and plate viscometry	116.8 mPa·s and 117.6 mPa·s
329.88 K, Cone and plate viscometry	112.8 mPa·s and 113.7 mPa·s
330.62 K, Cone and plate viscometry	108.9 mPa·s
330.63 K, Cone and plate viscometry	109.9 mPa·s
331.36 K, Cone and plate viscometry	105.1 mPa·s
331.37 K, Cone and plate viscometry	106 mPa·s
332.1 K, Cone and plate viscometry	102.6 mPa·s

Details	mass density	speed of sound [m/s]
298.15 K	1236.18 kg/m3	–
303.15 K	1232.68 kg/m3 and 1232.44 kg/m3 and 1232.4 kg/m3	1394.9
303.16 K	1232.32 kg/m3	–
313.15 K	1224.86 kg/m3 and 1224.73 kg/m3 and 1224.76 kg/m3	–
313.16 K	1224.63 kg/m3	1367
323.15 K	1217.09 kg/m3 and 1217.15 kg/m3	1342
323.16 K	1217.34 kg/m3	–
